{"source": "patent US20240175881A1", "about": "“SIMPLIFIED METHODS FOR MEASURING LIVER FUNCTION” (HepQuant, LLC, priority 2022, published 2024)", "key": {"[1]": {"tested_on": "subjects with Child-Pugh A cirrhosis and a liver stiffness measurement of >15 kPa", "settings": "HepQuant SHUNT test; cited from earlier work"}, "[2]": {"tested_on": "patients with well-compensated (Child-Pugh A) NASH cirrhosis", "assay": "Risk ACE from simplified cholate tests (SHUNT V2.0, DuO) in open-label resmetirom arm of MAESTRO-NAFLD-1", "assay_type": "in vivo, human", "description": "MAESTRO-NAFLD-1 (NCT04197479) was a 52-week Phase 3 trial to evaluate the safety and tolerability of resmetirom, a thyroid hormone receptor-β agonist being studied for the treatment of NASH. (Harrison et al., Lancet 2019, 394:2012-24). MAESTRO-NAFLD-1 included an open-label active resmetirom treatment arm in patients with well-compensated (Child-Pugh A [CP-A]) NASH cirrhosis (FIG. 23).\nMethods: Subjects (n=34) with compensated NASH cirrhosis underwent baseline testing and subsequent retesting at 28 and 48 weeks. Eligibility included at least 3 metabolic risk factors and NASH cirrhosis diagnosed by liver biopsy or accepted criteria\nAUCs were calculated by a compartmental model (McRae et al., 2023 Translational Res. 252:53-63). For SHUNT V2.0: IV and oral data at 20 and 60 minutes were employed. For DuO: only oral data at 20 and 60 minutes were employed.\nRisk ACE was calculated for each subject from the baseline and weeks 28 and 48 disease severity index (DSI). A Poisson model (Risk ACE) estimated the annual clinical event rate based on 220 subjects with 52 clinical events from the HALT-C Trial. The result is an event rate (clinical events per person-year). • Model A: Relationship with baseline DSI (denoted by dsi0):\nY=β0+β1dsi0 • Model D: Relationship with baseline DSI and change in DSI (denoted dsiΔ)\nDifference from baseline is represented by the difference of Risk ACE Model A and Model D (Table 26)."}}}
{"molecule": "CCOc1c(C(=O)O)cnn1-c1cccc(-c2cccc(C)c2OCc2ccc3c(c2C)CCN(C2CCOCC2)C3)n1", "note": "[BI 685509]", "values": [{"measurement": "hepatic function", "setting": "[1]", "result": "improves hepatic function"}]}
{"molecule": "CC(C)c1cc(Oc2c(Cl)cc(-n3nc(C#N)c(=O)[nH]c3=O)cc2Cl)n[nH]c1=O", "note": "[Resmetirom]", "values": [{"measurement": "subjects in whom Risk ACE decreased", "setting": "[2]; DuO test, 28 weeks vs baseline", "result": "21 of 23"}, {"measurement": "subjects in whom Risk ACE decreased", "setting": "[2]; DuO test, 48 weeks vs baseline", "result": "19 of 23"}, {"measurement": "Δ Risk ACE", "setting": "[2]; DuO test, Baseline - Week 28 of resmetirom", "result": "−0.0182 clinical events per person-year"}, {"measurement": "Δ Risk ACE", "setting": "[2]; DuO test, Baseline - Week 28 of resmetirom, listed as resmetirom", "result": "significant decrease"}, {"measurement": "Δ Risk ACE", "setting": "[2]; DuO test, Baseline - Week 48 of resmetirom", "result": "−0.0355 clinical events per person-year"}, {"measurement": "Δ Risk ACE", "setting": "[2]; DuO test, Baseline - Week 48 of resmetirom, listed as resmetirom", "result": "−0.0355 clinical events per person-yea"}, {"measurement": "subjects in whom Risk ACE decreased", "setting": "[2]; SHUNT V2.0 test, 28 weeks vs baseline", "result": "20 of 23"}, {"measurement": "subjects in whom Risk ACE decreased", "setting": "[2]; SHUNT V2.0 test, 48 weeks vs baseline", "result": "19 of 23"}, {"measurement": "Δ Risk ACE", "setting": "[2]; SHUNT V2.0 test, Baseline - Week 28 of resmetirom", "result": "−0.0174 clinical events per person-year"}, {"measurement": "Δ Risk ACE", "setting": "[2]; SHUNT V2.0 test, Baseline - Week 28 of resmetirom, listed as resmetirom", "result": "−0.0170 clinical events per person-yea"}, {"measurement": "Δ Risk ACE", "setting": "[2]; SHUNT V2.0 test, Baseline - Week 48 of resmetirom", "result": "−0.0325 clinical events per person-year"}, {"measurement": "Δ Risk ACE", "setting": "[2]; SHUNT V2.0 test, Baseline - Week 48 of resmetirom, listed as resmetirom", "result": "−0.0325 clinical events per person-yea"}, {"measurement": "estimated clinical event rate", "setting": "[2]; simplified cholate tests, after 28 weeks of resmetirom", "result": "reduction in estimated clinical event rate"}]}
